Assay results taken from US8158389B2, “Products and methods for in vivo secretion of monatin” (priority 2005, dated 2012).
Values joined by “and” are separate entries in the source; they are usually repeats but may differ in a detail not shown here. Identical values can stand only once.

Target: T1, AcrAB efflux pump (Escherichia coli, UniProt P31224)
T1 construct: endogenous in cells; host or cells: E. coli BL21 (DE3) with aspCproApET32 plus pProNde with or without tolC
Test: Monatin excretion with 2.5 mM sodium decanoate treatment, strains with or without tolC overexpression
Assay type: cell-based
Settings: for Monatin/dry cell weight, 25 hr average / Monatin/dry cell weight, 50 hr average: n = 2
Procedure: Strains used for the experiment included E. coli BL21 (DE3) : : aspCproApET32 and tolC pProNde or pProNde without tolC. For inoculum, the E. coli strains were grown overnight at 37° C. and 250 rpm in Luria-Bertani (“LB”) medium with 100 μg/mL ampicillin and 50 μg/mL kanamycin.
For the experimental treatments, Trp-1+glucose medium, a minimal medium that has been used for increased production of tryptophan in E. coli cells (Zeman, et al. Folia Microbiol. 35:200-204, (1990)), was prepared as follows. To 800 mL nanopure water the following reagents were added: 2 g (NH4)2SO4 and 13.6 g KE2PO4. The pH was adjusted to 7.0, the volume was increased to 948 mL, and the medium was autoclaved. Following sterilization, 0.2 g MgSO4.7H2O, 0.01 g CaCl2.2H2O, and 0.5 mg FeSO4.7H2O were added to the medium in a 1.8 mL volume followed by addition of 0.2 mL of Neidhardt's micronutrient solution. Neidhardt, F. C., et al., “Culture medium for Enterobacteria,” J. Bacteriol. 119:736-746, (1974). Neidhardt's medium includes (per liter): 0.18 g (NH4)6(MO7)24-4H2O, 1.24 g H3BO3, 0.36 g CoCl2.6H2O, 0.12 g CuSO4 (anhydrous), 0.8 g MnCl2.4H2O, and 0.14 g ZnSO4.7H2O. A 50% glucose solution was prepared separately and sterile-filtered. Forty mL of glucose solution and 10 mL of 1 M 3-Morpholinopropanesulfonic acid (“MOPS”) buffer were added to the base medium (950 mL) for a 1 L final volume.
Conditions for the treatments included 30° C. throughout the experiment and 250 rpm agitation. At 0.4 OD600 nm, induction of the plasmid genes was initiated. At induction, 0.5 mM IPTG, 0.5% arabinose, 0.5 mM pyridoxine hydrochloride, and 0.2 mL of Balch's vitamins (Balch, W. E., et al., “Methanogens: reevaluation of a unique biological group,” Microbiol. Rev. 43:260-296, (1979)) were added. […] Some treatments included 2.5 mM sodium decanoate addition at 3 hours following induction.
The amount of monatin excreted was determined using the method described in Example 13.
In this example, the combination of induction of the AcrAB efflux pump with increased availability of the TolC channels was evaluated. E. coli strains overexpressing the tolC gene were additionally subjected to treatment with 2.5 mM sodium decanoate to simultaneously induce the AcrAB pumps.

[1] = E. coli BL21 DE3 aspC proApET32 & pProNde w/o tolC (control)
[2] = E. coli BL21 DE3 aspC proApET32 & tolCpProNde

T1 sequence (P0AE06 25-397): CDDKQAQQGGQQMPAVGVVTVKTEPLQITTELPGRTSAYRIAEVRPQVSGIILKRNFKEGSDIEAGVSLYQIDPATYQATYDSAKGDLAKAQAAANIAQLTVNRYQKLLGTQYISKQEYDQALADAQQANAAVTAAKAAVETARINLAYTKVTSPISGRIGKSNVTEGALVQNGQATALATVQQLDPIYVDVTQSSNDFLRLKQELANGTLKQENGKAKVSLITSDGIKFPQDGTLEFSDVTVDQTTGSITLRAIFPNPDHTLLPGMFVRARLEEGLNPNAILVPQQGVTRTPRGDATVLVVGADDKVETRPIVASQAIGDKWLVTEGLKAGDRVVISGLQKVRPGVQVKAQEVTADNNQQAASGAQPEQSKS
T1 sequence (P02930 23-493, further chain): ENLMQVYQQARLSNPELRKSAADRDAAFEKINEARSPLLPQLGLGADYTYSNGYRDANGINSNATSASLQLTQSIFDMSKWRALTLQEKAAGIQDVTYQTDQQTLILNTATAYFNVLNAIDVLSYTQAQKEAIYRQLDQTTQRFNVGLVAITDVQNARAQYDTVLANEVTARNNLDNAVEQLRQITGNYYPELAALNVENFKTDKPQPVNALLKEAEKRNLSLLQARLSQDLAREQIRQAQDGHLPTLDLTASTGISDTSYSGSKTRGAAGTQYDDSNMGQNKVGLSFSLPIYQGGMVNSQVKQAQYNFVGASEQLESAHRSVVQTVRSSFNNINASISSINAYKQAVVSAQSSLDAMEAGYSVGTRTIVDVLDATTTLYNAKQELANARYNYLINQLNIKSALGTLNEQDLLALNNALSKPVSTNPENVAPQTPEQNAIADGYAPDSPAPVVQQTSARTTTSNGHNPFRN
T1 sequence (P31224 whole entry): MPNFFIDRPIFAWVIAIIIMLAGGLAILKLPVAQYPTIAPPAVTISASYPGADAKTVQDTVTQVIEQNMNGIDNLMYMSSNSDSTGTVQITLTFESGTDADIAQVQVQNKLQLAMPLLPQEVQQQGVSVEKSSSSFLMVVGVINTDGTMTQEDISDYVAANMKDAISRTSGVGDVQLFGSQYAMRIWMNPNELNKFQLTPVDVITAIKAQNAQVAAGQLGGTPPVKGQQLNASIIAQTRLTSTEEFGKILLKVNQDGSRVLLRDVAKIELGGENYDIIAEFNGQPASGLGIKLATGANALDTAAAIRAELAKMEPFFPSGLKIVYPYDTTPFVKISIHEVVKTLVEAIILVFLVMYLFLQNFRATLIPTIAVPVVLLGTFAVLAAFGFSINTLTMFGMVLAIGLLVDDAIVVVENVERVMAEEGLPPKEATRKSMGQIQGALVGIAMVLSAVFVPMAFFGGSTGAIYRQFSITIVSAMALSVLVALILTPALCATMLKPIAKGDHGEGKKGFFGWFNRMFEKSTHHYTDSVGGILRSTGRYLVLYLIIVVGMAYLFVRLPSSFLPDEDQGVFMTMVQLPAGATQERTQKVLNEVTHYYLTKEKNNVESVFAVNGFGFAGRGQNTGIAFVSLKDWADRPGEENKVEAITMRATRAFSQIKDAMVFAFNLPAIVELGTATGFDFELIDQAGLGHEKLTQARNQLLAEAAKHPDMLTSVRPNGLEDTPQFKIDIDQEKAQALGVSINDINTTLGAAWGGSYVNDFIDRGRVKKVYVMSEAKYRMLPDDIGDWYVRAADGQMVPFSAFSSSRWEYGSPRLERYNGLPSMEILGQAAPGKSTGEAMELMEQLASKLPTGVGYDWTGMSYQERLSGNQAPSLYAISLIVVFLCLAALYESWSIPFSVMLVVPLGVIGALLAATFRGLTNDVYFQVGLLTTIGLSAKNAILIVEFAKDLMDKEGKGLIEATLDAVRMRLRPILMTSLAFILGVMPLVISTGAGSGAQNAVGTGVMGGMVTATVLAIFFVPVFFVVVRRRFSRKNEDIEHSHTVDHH

CCCCCCCCCC(=O)[O-].[Na+] [sodium decanoate]
Monatin/dry cell weight, 25 hr [1]: 0.19 mg monatin/g dcw and 0.17 mg monatin/g dcw
Monatin/dry cell weight, 50 hr [1]: 0.09 mg monatin/g dcw and 0.11 mg monatin/g dcw
Monatin/dry cell weight, 25 hr [2]: 8.88 mg monatin/g dcw and 12.19 mg monatin/g dcw
Monatin/dry cell weight, 50 hr [2]: 7.99 mg monatin/g dcw and 10.23 mg monatin/g dcw
Monatin/dry cell weight, 25 hr average (pProNde w/o tolC (control)): 0.18 mg monatin/g dcw
Monatin/dry cell weight, 50 hr average (pProNde w/o tolC (control)): 0.10 mg monatin/g dcw
Monatin/dry cell weight, 25 hr average (tolCpProNde): 10.53 mg monatin/g dcw
Monatin/dry cell weight, 50 hr average (tolCpProNde): 9.11 mg monatin/g dcw
